# Assay results reported in US20130310384A1, “Sulfonamide-Containing Compounds” (THE BRIGHAM AND WOMEN'S HOSPITAL, INC., priority 2010, published 2013).
# Test system: not listed separately
# Assay: Tolerability in the acute in vivo study (7 consecutive days, oral b.i.d.)
# Settings: 100 mg/kg b.i.d. for 7 consecutive days, transgenic and nontransgenic mice
# Text: [VIII] Embodiments can include any one or more of the following advantages. […] Selective inhibition of the cleavage of APP relative to that of the Notch receptor is believed to minimize certain unwanted side effects, such as lymphopoiesis and intestinal cell differentiation. […] This is an indication that there could be a minimization of side effects with these types of compounds
# (§1) A preliminary acute efficacy study in 6-month-old female hAPPSL transgenic (Tg) mice (Rockenstein, E., Mallory, M., Mante, M., Sisk, A., and Masliah, E. (2001) J Neurosci Res 66, 573-582) was completed on the compound of Example 1. Mice were treated orally (b.i.d.) with two doses, 50 mg/kg (n=4) and 100 mg/kg (n=4) for 7 consecutive days. […] Human Aβ38, Aβ40 and Aβ42 levels were determined in the cortex, hippocampus, and cerebral spinal fluid (CSF) by an immunosorbent assay.
row,Compound,Toxicity in in vivo efficacy study
1,"CC[C@@H](c1ccccc1)N(Cc1ccc(C(=O)O)cc1)S(=O)(=O)c1ccc(Cl)cc1 [Example 1, (S)-4-((4-Chloro-N-(1-phenylpropyl)phenylsulfonamido)methyl)benzoic acid]",no toxicity was observed

# Same assay, conditions: hAPPSL Tg mice, oral b.i.d. 50 and 100 mg/kg, 7 consecutive days
Compound,Adverse side effects on any organ compared to vehicle controls,Mortality during treatment
"CC[C@@H](c1ccccc1)N(Cc1ccc(C(=O)O)cc1)S(=O)(=O)c1ccc(Cl)cc1 [Example 1, (S)-4-((4-Chloro-N-(1-phenylpropyl)phenylsulfonamido)methyl)benzoic acid]",no obvious adverse side effects,No mice died

# Test system: not given
# Assay: not given
# Settings: not given
row,melting point,Compound
1,103 to 105 °C,"CC[C@@H](c1ccccc1)N(Cc1ccc(C(=O)OC)cc1)S(=O)(=O)c1ccc(F)c(F)c1 [Example 115, (S)-Methyl 4-((3,4-difluoro-N-(1-phenylpropyl)phenylsulfonamido)methyl)benzoate]"
2,182 to 184 °C,"C[C@H](O)[C@H](CO)N(Cc1ccc(C(=O)O)cc1)S(=O)(=O)c1ccc(Cl)cc1 [Example 118, 4-((4-Chloro-N-((2S,3S)-1,3-dihydroxybutan-2-yl)phenylsulfonamido)methyl)benzoic acid]"
3,123 to 125 °C,"CC[C@@H](c1ccc(C(F)(F)F)cc1)N(Cc1ccc(C(=O)OC)cc1)S(=O)(=O)c1ccc(Cl)cc1 [Example 122, (S)-Methyl 4-((4-chloro-N-(1-(4-(trifluoromethyl)phenyl)propyl)phenylsulfonamido)methyl)benzoate]"
4,120 to 121 °C,"CC[C@H](c1ccc(C(F)(F)F)cc1)N(Cc1ccc(C(=O)OC)cc1)S(=O)(=O)c1ccc(Cl)cc1 [Example 123, (R)-Methyl 4-((4-chloro-N-(1-(4-(trifluoromethyl)phenyl)propyl)phenylsulfonamido)methyl)benzoate]"
5,87 to 89 °C,"CC[C@@H](c1ccccc1)N(Cc1ccc(C(=O)OC)c(F)c1F)S(=O)(=O)c1ccc(Cl)cc1 [Example 124, (S)-Methyl 4-((4-chloro-N-(1-phenylpropyl)phenylsulfonamido)methyl)-2,3-difluorobenzoate]"
6,101 to 103 °C,"CC[C@@H](c1ccc(C(F)(F)F)cc1)N(Cc1ccc(C(=O)O)cc1)S(=O)(=O)c1ccc(Cl)cc1 [Example 125, (S)-4-((4-Chloro-N-(1-(4-(trifluoromethyl)phenyl)propyl)phenylsulfonamido)methyl)benzoic acid]"
7,105 to 107 °C,"CC[C@H](c1ccc(C(F)(F)F)cc1)N(Cc1ccc(C(=O)O)cc1)S(=O)(=O)c1ccc(Cl)cc1 [Example 126, (R)-4-((4-Chloro-N-(1-(4-(trifluoromethyl)phenyl)propyl)phenylsulfonamido)methyl)benzoic acid]"
8,127 to 129 °C,"CC[C@@H](c1ccccc1)N(Cc1ccc(C(=O)O)c(F)c1F)S(=O)(=O)c1ccc(Cl)cc1 [Example 127, (S)-4-((4-Chloro-N-(1-phenylpropyl)phenylsulfonamido)methyl)-2,3-difluorobenzoic acid]"
9,112 to 114 °C,"C[C@H](O)[C@H](CO)N(Cc1ccc(C#N)cc1F)S(=O)(=O)c1ccc(Cl)cc1 [Example 131, 4-Chloro-N-(4-cyano-2-fluorobenzyl)-N-((2S,3S)-1,3-dihydroxybutan-2-yl)-benzenesulfonamide]"
10,124 to 126 °C,"C[C@H](O)[C@H](CO)N(Cc1ccc(C#N)cc1)S(=O)(=O)c1ccc(Cl)cc1 [Example 132, 4-Chloro-N-(4-cyanobenzyl)-N-((2S,3S)-1,3-dihydroxybutan-2-yl)-benzene-sulfonamide]"
11,60 to 62 °C,"COC(=O)c1cc(CN([C@@H](CO)c2ccccc2)S(=O)(=O)c2ccc(Cl)cc2)ccc1OC [Example 133, (R)-Methyl 5-((4-chloro-N-(2-hydroxy-1-phenylethyl)phenylsulfonamido)methyl)-2-methoxybenzoate]"
12,79 to 80 °C,"COc1ccc(CN([C@@H](CO)c2ccccc2)S(=O)(=O)c2ccc(Cl)cc2)cc1C(=O)O [Example 134, (R)-5-((4-Chloro-N-(2-hydroxy-1-phenylethyl)phenylsulfonamido)methyl)-2-methoxybenzoic acid]"
13,163 to 165 °C,"C[C@@H](c1ccc(Cl)cc1)N(Cc1ccc(C(=O)O)cc1)S(=O)(=O)c1ccc(Cl)cc1 [Example 141, (S)-4-((4-Chloro-N-(1-(4-chlorophenyl)ethyl)phenylsulfonamido)methyl)benzoic acid]"
14,67 to 69 °C,"COC(=O)c1ccc(CN([C@@H](C)c2ccc(Cl)cc2)S(=O)(=O)c2ccc(Cl)cc2)cc1 [Example 141, (S)-Methyl 4-((4-chloro-N-(1-(4-chlorophenyl)ethyl)phenylsulfonamido)methyl)benzoate]"

# Test system: Human Aβ38, Aβ40 and Aβ42 levels
# Assay: Acute in vivo efficacy study in hAPPSL transgenic mice (Aβ levels by immunosorbent assay)
# Settings: 6-month-old female hAPPSL Tg mice, oral b.i.d. 50 and 100 mg/kg, 7 consecutive days; p<0.01
# Description: as §1
row,Compound,Reduction of Aβ40 in the hippocampus
1,"CC[C@@H](c1ccccc1)N(Cc1ccc(C(=O)O)cc1)S(=O)(=O)c1ccc(Cl)cc1 [Example 1, (S)-4-((4-Chloro-N-(1-phenylpropyl)phenylsulfonamido)methyl)benzoic acid]",Statistically significant reductions

# Same assay, conditions: 6-month-old female hAPPSL Tg mice, oral b.i.d. 50 and 100 mg/kg, 7 consecutive days; p<0.05
row,Compound,Reduction of Aβ38 in the hippocampus
1,"CC[C@@H](c1ccccc1)N(Cc1ccc(C(=O)O)cc1)S(=O)(=O)c1ccc(Cl)cc1 [Example 1, (S)-4-((4-Chloro-N-(1-phenylpropyl)phenylsulfonamido)methyl)benzoic acid]",Statistically significant reductions
